In PubChem BioAssay AID2060511 (Molecular Pharmacology Branch, DTP, NCI, 2025):

Tested on: 422866-222-R5-J1-PDC spheroids with HUVEC/MSC, viability
Test: Anticancer human tumor 422866-222-R5-J1-PDC patient-derived pancreatic adenocarcinoma cell line growth inhibition [GQUAD]
Settings: for IC50: curve of first compound; for viability, T/C: stronger effect = lower value
In short: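 Tumor cells were grown as complex spheroids with HUVEC endothelial cells and mesenchymal stem cells as stroma. G-quadruplex stabilizers were combined with targeted agents over half-log dilutions from near the clinical Cmax, or from 10 microM.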

[1] = second compound 0.0316 µM, first compound 0.0316 µM
[2] = second compound 0.0316 µM, first compound 0.1 µM
[3] = second compound 0.0316 µM, first compound 0.316 µM
[4] = second compound 0.0316 µM, first compound 1 µM
[5] = second compound 0.0316 µM, first compound 3.16 µM
[6] = second compound 0.0316 µM, first compound 10 µM
[7] = second compound 0.1 µM, first compound 0.0316 µM
[8] = second compound 0.1 µM, first compound 0.1 µM
[9] = second compound 0.1 µM, first compound 0.316 µM
[10] = second compound 0.1 µM, first compound 1 µM
[11] = second compound 0.1 µM, first compound 3.16 µM
[12] = second compound 0.1 µM, first compound 10 µM
[13] = second compound 0.316 µM, first compound 0.0316 µM
[14] = second compound 0.316 µM, first compound 0.1 µM
[15] = second compound 0.316 µM, first compound 0.316 µM
[16] = second compound 0.316 µM, first compound 1 µM
[17] = second compound 0.316 µM, first compound 3.16 µM
[18] = second compound 0.316 µM, first compound 10 µM
[19] = second compound 1 µM, first compound 0.0316 µM
[20] = second compound 1 µM, first compound 0.1 µM
[21] = second compound 1 µM, first compound 0.316 µM
[22] = second compound 1 µM, first compound 1 µM
[23] = second compound 1 µM, first compound 3.16 µM
[24] = second compound 1 µM, first compound 10 µM
[25] = second compound 3.16 µM, first compound 0.0316 µM
[26] = second compound 3.16 µM, first compound 0.1 µM
[27] = second compound 3.16 µM, first compound 0.316 µM
[28] = second compound 3.16 µM, first compound 1 µM
[29] = second compound 3.16 µM, first compound 3.16 µM
[30] = second compound 3.16 µM, first compound 10 µM
[31] = second compound 10 µM, first compound 0.0316 µM
[32] = second compound 10 µM, first compound 0.1 µM
[33] = second compound 10 µM, first compound 0.316 µM
[34] = second compound 10 µM, first compound 1 µM
[35] = second compound 10 µM, first compound 3.16 µM
[36] = second compound 10 µM, first compound 10 µM
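Further: spheroids exposed to compounds for seven days before reading.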
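Wherever viability, T/C is given: percent viability relative to DMSO vehicle control taken as 100%.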

`CC1COCCN1c1cc(C2(O)CC3CCC(C2)O3)c2cnn(-c3ccn[nH]3)c2n1` (centres undefined) + Cc1[nH]c2ccc(F)cc2c1-c1nc2c3cccnc3c3ncccc3c2[nH]1 showed an IC50 (second compound 0.0316 µM) of 31.6 nM, an IC50 (second compound 0.1 µM) greater than 10000 nM and an IC50 (second compound 0.316 µM) greater than 10000 nM. The IC50 (second compound 1 µM) was greater than 10000 nM, the IC50 (second compound 3.16 µM) was less than 31.6 nM and the IC50 (second compound 10 µM) was greater than 10000 nM. For the same compound, the viability, T/C [1] was 74.6%, the viability, T/C [2] was 47.4% and the viability, T/C [3] was 48.1%. It also gave a viability, T/C [4] of 48%, a viability, T/C [5] of 87.5% and a viability, T/C [6] of 92%. It also gave a viability, T/C [7] of 73.3%, a viability, T/C [8] of 55.9% and a viability, T/C [9] of 42.1%. The viability, T/C [10] was 62.2%, the viability, T/C [11] was 88% and the viability, T/C [12] was 90.3%. The viability, T/C [13] was 85.4%, the viability, T/C [14] was 52.6% and the viability, T/C [15] was 37.4%. It also gave a viability, T/C [16] of 79.1%, a viability, T/C [17] of 97.1% and a viability, T/C [18] of 109%. The viability, T/C [19] was 70.4%, the viability, T/C [20] was 39.1% and the viability, T/C [21] was 44.1%. For the same compound, the viability, T/C [22] was 79.9%, the viability, T/C [23] was 98.2% and the viability, T/C [24] was 114%. It also gave a viability, T/C [25] of 51.7%, a viability, T/C [26] of 43.8% and a viability, T/C [27] of 49.8%. The viability, T/C [28] was 82.9%, the viability, T/C [29] was 90.8% and the viability, T/C [30] was 90.8%. It also gave a viability, T/C [31] of 54.7%, a viability, T/C [32] of 47.8% and a viability, T/C [33] of 51.2%. It also gave a viability, T/C [34] of 85.4%, a viability, T/C [35] of 84.5% and a viability, T/C [36] of 90.8%.
`CC1COCCN1c1cc(-c2ccnn2C)c2ccnc(-c3ccn[nH]3)c2n1` (centres undefined) + CN(C)c1ccc(Nc2c3ccc(NC(=O)CCN4CCCC4)cc3nc3cc(NC(=O)CCN4CCCC4)ccc23)cc1 gave an IC50 (second compound 0.0316 µM) greater than 10000 nM, an IC50 (second compound 0.1 µM) greater than 10000 nM and an IC50 (second compound 0.316 µM) greater than 10000 nM. For the same compound, the IC50 (second compound 1 µM) was 31.6 nM, the IC50 (second compound 3.16 µM) was 31.6 nM and the IC50 (second compound 10 µM) was 31.6 nM. For the same compound, the viability, T/C [1] was 88.7%, the viability, T/C [2] was 60.3% and the viability, T/C [3] was 53.2%. The viability, T/C [4] was 46.5%, the viability, T/C [5] was 73.2% and the viability, T/C [6] was 92.6%. For the same compound, the viability, T/C [7] was 92.4%, the viability, T/C [8] was 62.7% and the viability, T/C [9] was 46.2%. It also gave a viability, T/C [10] of 36.2%, a viability, T/C [11] of 86.8% and a viability, T/C [12] of 84.2%. The viability, T/C [13] was 86.8%, the viability, T/C [14] was 70.2% and the viability, T/C [15] was 46.7%. The viability, T/C [16] was 39.4%, the viability, T/C [17] was 86.9% and the viability, T/C [18] was 89.3%. The viability, T/C [19] was 73%, the viability, T/C [20] was 52% and the viability, T/C [21] was 37.2%. It also gave a viability, T/C [22] of 39.2%, a viability, T/C [23] of 91.2% and a viability, T/C [24] of 71.5%. It also gave a viability, T/C [25] of 79%, a viability, T/C [26] of 54.8% and a viability, T/C [27] of 38%. For the same compound, the viability, T/C [28] was 39.7%, the viability, T/C [29] was 81.2% and the viability, T/C [30] was 94.6%. It also gave a viability, T/C [31] of 76.8%, a viability, T/C [32] of 52.7% and a viability, T/C [33] of 40.2%. The viability, T/C [34] was 41.4%, the viability, T/C [35] was 83.9% and the viability, T/C [36] was 83.8%.
